How the values were obtained:
Experiment in all cases: Microdilution test (MIC/MBC)
Type in all cases: cell-based
Details in all cases: lower line of pair, sub-cultivation 72 h
[1] = system: M. flavus
Protocol: (§1) Minimum inhibitory concentration (MIC) is the lowest concentration of an antimicrobial that will inhibit the visible growth of a microorganism after overnight incubation. Minimum inhibitory concentrations are important in diagnostic laboratories to confirm resistance of microorganisms to an antimicrobial agent and to monitor the activity of new antimicrobial agents. A MIC is the most basic laboratory measurement of the activity of an antimicrobial agent against an organism.
(§2) The minimum inhibitory and bactericidal concentrations (MICs and MBCs) can be determined using 96-well microtitre plates. The bacterial suspension is adjusted with sterile saline to a concentration of 1.0×10^5 cfu/m L. Compounds to be investigated are dissolved in broth LB medium (100 μL) with bacterial inoculum (1.0×10^4 cfu per well) to achieve the wanted concentrations (0.02-15.0 μL g/mL). The microplates are incubated for 24 h at 28° C. […] The MBCs are determined by serial sub-cultivation of 2 μL into microtitre plates containing 100 μL of broth per well and further incubation for 72 h. The lowest concentration with no visible growth is defined as the MBC, indicating 99.5% killing of the original inoculum. The optical density of each well is measured at a wavelength of 655 nm by Microplate manager 4.0 (Bio-Rad Laboratories) and compared with a blank and the positive control. Streptomycin is used as a positive control using the same concentrations as in the disc diffusion test. Two replicates were done for each oil and each component.

[2] = system: L. monocytogenes
Protocol: as §1, §2

[3] = system: P. aeruginosa
Protocol: as §1, §2

[4] = system: S. epidermidis
Protocol: as §1, §2

[5] = system: S. aureus
Protocol: as §1, §2

[6] = system: E. cloacae
Protocol: as §1, §2

[7] = system: S. enteritidis
Protocol: as §1, §2

[8] = system: P. mirabilis
Protocol: as §1, §2

[9] = system: E. coli
Protocol: as §1, §2

[10] = system: B. subtilis
Protocol: as §1, §2

[11] = system: S. typhimurium
Protocol: as §1, §2

| SMILES | MBC [1] | MBC [2] | MBC [3] | MBC [4] | MBC [5] | MBC [6] | MBC [7] | MBC [8] | MBC [9] | MBC [10] | MBC [11] |
| --- | --- | --- | --- | --- | --- | --- | --- | --- | --- | --- | --- |
| CC12CCC(CC1)C(C)(C)O2 [1,8 cineole (eucalyptol)] | 5.0 μL g/mL | 6.0 μL g/mL | 9.0 μL g/mL | 5.0 μL g/mL | 6.0 μL g/mL | 8.0 μL g/mL | 6.0 μL g/mL | 8.0 μL g/mL | 8.0 μL g/mL | 5.0 μL g/mL | 6.0 μL g/mL |
| C=C(C)[C@H]1CC=C(C)CC1 [Limonene] | 7.0 μL g/mL | 10.0 μL g/mL | 15.0 μL g/mL | 8.0 μL g/mL | 8.0 μL g/mL | 10.0 μL g/mL | 10.0 μL g/mL | 15.0 μL g/mL | 12.0 μL g/mL | 7.0 μL g/mL | 10.0 μL g/mL |
| C=C1CCC2CC1C2(C)C (stereo not drawn) [beta pinene] | 5.5 μL g/mL | 10.0 μL g/mL | 13.0 μL g/mL | 6.5 μL g/mL | 7.5 μL g/mL | 10.0 μL g/mL | 9.0 μL g/mL | 10.0 μL g/mL | 10.0 μL g/mL | 6.0 μL g/mL | 9.0 μL g/mL |

Source: US20190264146A1, “An Antimicrobial Composition” (priority 2015, published 2019)
